{"source": "paper PMC11729428", "about": "“New Potent Inhibitor of Transforming Growth Factor-Beta (TGFβ) Signaling that is Efficacious against Microsatellite Stable Colorectal Cancer Metastasis in Combination with Immune Checkpoint Therapy in Mice” (ACS Pharmacology & Translational Science, 2024)", "key": {"[1]": {"parameters": "method as in PMID 24786585", "conditions": "rats (♀ SD), oral, 10 mg/kg ref 18; cited from earlier work"}, "panel of enzymes": {"tested_on": "panel of enzymes", "assay": "In vitro safety pharmacology, enzymatic inhibition (SafetyScreen 44)", "assay_type": "biochemical", "conditions": "10 μM HYL001", "experimental": "To identify potential adverse off-target drug interactions and derisk the development of HYL001 as a drug,[22] we performed binding and enzymatic inhibition assays with a panel of key proteins (mainly cell receptors, neurotransmitter transporters, and ion channels). […]\nanalysis by LC-MS/MS, using MRM mode. […]\nrelated to phase I and phase II metabolism, respectively.\nThe PARs were used for calculation of metabolic stability. The 0 min area ratio was considered as 100%. The […]\nincubation volume / number of cells (in millions) x K e. To calculate into full body context, the values of 120 […]\nIn vitro safety pharmacology […]\ncompared with historical values determined at Eurofins. Binding was defined as the % inhibition of the signal […]\nenzyme activity. […] Results showing\nThe tail current amplitude, induced by a one […]\nand expressed as % inhibition.\nThe Ames test was performed at Xenomatrix (Allschwil, Switzerland). Bacteria from the S. typhimurium"}, "hERG potassium channel [2]": {"target": "T1, hERG potassium channel (Homo sapiens, UniProt Q12809)", "T1 sequence (Q12809 whole entry)": "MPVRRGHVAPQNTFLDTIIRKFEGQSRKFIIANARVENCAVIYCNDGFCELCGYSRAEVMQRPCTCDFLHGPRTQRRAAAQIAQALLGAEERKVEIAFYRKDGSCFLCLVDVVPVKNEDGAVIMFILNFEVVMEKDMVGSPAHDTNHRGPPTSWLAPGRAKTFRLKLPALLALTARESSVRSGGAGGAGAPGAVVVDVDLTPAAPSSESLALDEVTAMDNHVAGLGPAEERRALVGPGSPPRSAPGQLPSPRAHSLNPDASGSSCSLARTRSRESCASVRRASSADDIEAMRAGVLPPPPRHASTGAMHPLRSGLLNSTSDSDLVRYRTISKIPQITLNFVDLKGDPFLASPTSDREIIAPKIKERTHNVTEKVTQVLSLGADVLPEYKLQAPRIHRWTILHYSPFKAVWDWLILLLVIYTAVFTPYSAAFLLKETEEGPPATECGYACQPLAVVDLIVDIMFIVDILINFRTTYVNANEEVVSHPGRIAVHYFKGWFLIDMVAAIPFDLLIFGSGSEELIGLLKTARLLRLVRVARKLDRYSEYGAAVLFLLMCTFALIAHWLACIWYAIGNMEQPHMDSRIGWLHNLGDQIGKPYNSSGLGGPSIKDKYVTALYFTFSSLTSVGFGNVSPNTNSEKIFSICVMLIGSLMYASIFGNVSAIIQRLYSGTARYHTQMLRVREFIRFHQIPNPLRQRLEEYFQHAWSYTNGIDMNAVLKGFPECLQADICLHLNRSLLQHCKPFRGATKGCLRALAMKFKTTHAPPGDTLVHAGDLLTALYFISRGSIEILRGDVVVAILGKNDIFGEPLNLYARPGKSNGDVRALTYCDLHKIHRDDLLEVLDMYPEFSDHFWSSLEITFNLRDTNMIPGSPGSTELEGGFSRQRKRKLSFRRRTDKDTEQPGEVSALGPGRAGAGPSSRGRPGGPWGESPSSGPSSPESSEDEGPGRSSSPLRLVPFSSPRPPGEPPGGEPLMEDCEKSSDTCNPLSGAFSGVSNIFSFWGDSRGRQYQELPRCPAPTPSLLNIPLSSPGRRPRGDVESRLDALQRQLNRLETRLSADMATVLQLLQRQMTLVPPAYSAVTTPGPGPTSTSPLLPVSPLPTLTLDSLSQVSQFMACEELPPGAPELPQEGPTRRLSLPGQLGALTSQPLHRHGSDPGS", "assay": "hERG automated patch clamp on CHO-K1 cells", "conditions": "micromolar concentrations"}, "hERG potassium channel [3]": {"target": "T1, hERG potassium channel", "assay": "in vitro", "conditions": "CHO-K1 cells (hERG current)"}, "[4]": {"assay": "Plasma protein binding by rapid equilibrium dialysis, mouse plasma", "experimental": "5. Methods for In vitro characterizations of HYL001 […]\nRapid equilibrium dialysis was performed in triplicates with a rapid equilibrium dialysis (RED) by Sai Life Sciences Lt. (Telangana, India). The RED device contains a dialysis membrane with a molecular weight cut -off […]\nof 8,000 Da, separating two chambers for plasma and buffer, respectively. […]\nwere added to the plasma chamber, versus phosphate buffer saline (pH 7.4) to the buffer chamber. Dialysis was performed for 4 h with 100 RPM shaking at 37 °C. […]\ncompounds in plasma were either frozen immediately (T0 sample), or incubated at 37 °C for 4 h without dialysis (non-dialysed), respectively.\nFollowing dialysis, an aliquot was removed from either chamber and diluted with equal volume of opposite matrix to nullify the matrix effect. Similarly, buffer was added to recovery and stability samples. Next, acetonitrile (containing internal standard, glipizide) was added to the mixtures for protein precipitation and vortexed for 5 minutes. The samples were centrifuged at 4000 RPM at 4 °C for 10 min and the supernatant was submitted for liquid chromatography mass spectrometry (LC-MS/MS) analysis. Samples were monitored for parent compound using multiple reaction monitoring (MRM) mode.\nThe peak area ratios (PAR, analyte versus internal standard) in plasma vs bufffer were used to determine the fraction of compound bound to plasma proteins. The following equation was used to determine the extent of plasma protein binding: percent free drug = 100% x (PARbuffer / PARplasma); percent bound drug = 100 - % free drug. Recovery was calculated as 100% x (PARplasma + PARbuffer)dialysed / (PARplasma)non-dialysed; stability as 100% x (PAR)non-dialysed / (PARplasma)frozen at T0. […]"}, "ALK4 (ACVR1B)": {"target": "T2, ALK4 (ACVR1B) (Homo sapiens, UniProt P36896)", "T2 sequence (P36896 24-505)": "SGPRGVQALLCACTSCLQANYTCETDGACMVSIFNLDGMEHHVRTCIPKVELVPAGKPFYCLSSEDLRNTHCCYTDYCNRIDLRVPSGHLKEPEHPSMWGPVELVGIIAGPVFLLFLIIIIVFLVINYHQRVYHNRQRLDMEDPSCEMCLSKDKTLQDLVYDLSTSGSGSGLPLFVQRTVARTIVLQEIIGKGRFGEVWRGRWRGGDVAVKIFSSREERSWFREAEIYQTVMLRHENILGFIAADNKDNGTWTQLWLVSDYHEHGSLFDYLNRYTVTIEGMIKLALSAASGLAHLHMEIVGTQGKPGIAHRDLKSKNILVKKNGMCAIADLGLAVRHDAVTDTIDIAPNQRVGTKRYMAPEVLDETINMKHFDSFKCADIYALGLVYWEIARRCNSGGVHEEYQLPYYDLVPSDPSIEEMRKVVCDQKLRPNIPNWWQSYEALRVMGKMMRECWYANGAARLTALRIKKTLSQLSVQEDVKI", "conditions": "reported data ref 15, read-out: Binding constant (Kd) ALK4 (ACVR1B), cited from earlier work"}, "ALK3 (BMPR1A)": {"target": "T3, ALK3 (BMPR1A) (Homo sapiens, UniProt P36894)", "T3 construct": "purchased Eurofins/DiscoveryX (KINOMEscan service)", "T3 sequence (P36894 24-532)": "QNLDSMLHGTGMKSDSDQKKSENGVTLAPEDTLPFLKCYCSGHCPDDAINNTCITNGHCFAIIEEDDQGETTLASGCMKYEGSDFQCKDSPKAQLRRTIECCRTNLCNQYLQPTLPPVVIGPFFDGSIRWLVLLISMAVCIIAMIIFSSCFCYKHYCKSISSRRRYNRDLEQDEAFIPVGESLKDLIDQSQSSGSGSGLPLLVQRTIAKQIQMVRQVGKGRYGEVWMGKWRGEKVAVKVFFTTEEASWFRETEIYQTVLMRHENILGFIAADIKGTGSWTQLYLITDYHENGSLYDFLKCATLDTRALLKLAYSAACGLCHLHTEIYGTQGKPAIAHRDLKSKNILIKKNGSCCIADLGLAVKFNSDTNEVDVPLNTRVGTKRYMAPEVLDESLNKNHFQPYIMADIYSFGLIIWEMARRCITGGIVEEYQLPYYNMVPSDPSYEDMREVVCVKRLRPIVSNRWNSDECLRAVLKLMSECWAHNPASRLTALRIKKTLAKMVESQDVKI", "parameters": "method as in earlier work", "conditions": "reported data ref 15; read-out: Binding constant (Kd) ALK3 (BMPR1A); cited from earlier work"}, "ALK1 (ACVRL1)": {"target": "T4, ALK1 (ACVRL1) (Homo sapiens, UniProt P37023)", "T4 construct": "purchased Eurofins/DiscoveryX (KINOMEscan service)", "T4 sequence (P37023 22-503)": "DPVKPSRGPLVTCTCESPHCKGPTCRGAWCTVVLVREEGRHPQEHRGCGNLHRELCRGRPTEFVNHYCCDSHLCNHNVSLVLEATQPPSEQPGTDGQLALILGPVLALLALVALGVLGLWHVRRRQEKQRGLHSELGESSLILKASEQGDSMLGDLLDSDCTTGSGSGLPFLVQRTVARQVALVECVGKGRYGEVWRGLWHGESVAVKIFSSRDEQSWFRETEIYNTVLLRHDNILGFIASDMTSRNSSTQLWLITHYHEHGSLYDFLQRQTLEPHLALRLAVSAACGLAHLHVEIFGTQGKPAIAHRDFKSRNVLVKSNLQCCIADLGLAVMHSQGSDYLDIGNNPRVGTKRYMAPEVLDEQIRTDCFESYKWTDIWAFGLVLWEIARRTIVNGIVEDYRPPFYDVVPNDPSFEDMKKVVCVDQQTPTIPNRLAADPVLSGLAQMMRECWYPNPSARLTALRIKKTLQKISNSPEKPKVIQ", "parameters": "method as in earlier work", "conditions": "reported data ref 15; read-out: Binding constant (Kd) ALK1 (ACVRL1); cited from earlier work"}, "ALK5": {"tested_on": "ALK5", "conditions": "cited from earlier work"}, "ACVR2B": {"target": "T5, ACVR2B (Homo sapiens, UniProt Q13705)", "T5 construct": "purchased Eurofins/DiscoveryX (KINOMEscan service)", "T5 sequence (Q13705 19-512)": "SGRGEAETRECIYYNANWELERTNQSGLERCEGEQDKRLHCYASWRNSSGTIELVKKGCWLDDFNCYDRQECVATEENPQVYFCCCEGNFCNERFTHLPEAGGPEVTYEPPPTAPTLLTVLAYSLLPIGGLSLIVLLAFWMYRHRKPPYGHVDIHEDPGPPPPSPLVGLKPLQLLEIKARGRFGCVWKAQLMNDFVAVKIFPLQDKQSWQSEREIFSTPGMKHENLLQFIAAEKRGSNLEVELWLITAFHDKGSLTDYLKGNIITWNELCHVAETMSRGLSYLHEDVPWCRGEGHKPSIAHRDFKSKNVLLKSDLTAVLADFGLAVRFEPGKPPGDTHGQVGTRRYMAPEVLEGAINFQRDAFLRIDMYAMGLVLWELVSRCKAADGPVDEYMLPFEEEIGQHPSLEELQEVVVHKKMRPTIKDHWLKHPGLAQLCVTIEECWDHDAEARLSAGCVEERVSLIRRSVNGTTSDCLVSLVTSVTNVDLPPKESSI", "parameters": "method as in earlier work", "conditions": "reported data ref 15; read-out: Binding constant (Kd) ACVR2B; cited from earlier work"}}, "note": "Where two headings read alike, the source gives them in different places."}
{"smiles": "Cc1cccc(-c2[nH]c(CNc3ccccc3F)nc2-c2ccc3ncnn3c2)n1", "note": "[vactosertib, N -((4-([1,2,4]Triazolo[1,5-a]Pyridin-6-Yl)-5-(6-Methylpyridin-2-Yl)-1 H -Imidazole-2-Yl)Methyl)-2-Fluoroaniline]", "values": [{"measurement": "AUCinf", "setting": "[1]", "result": 1426, "unit": "ng·h/mL"}, {"measurement": "Cmax", "setting": "[1]", "result": 1620, "unit": "ng/mL"}, {"measurement": "T1/2", "setting": "[1]", "result": 2.5, "unit": "h"}]}
{"smiles": "Cc1cccc(-c2nn3c(c2-c2ccnc4ccc(O)cc24)CCC3)n1", "note": "[HYL001, 4-(2-(6-Methylpyridin-2-yl)-5,6-dihydro-4H-pyrrolo[1,2-b]pyrazol-3-yl)quinolin-6-ol]", "values": [{"measurement": "Inhibition of any of the tested enzymatic activities", "setting": "panel of enzymes", "result": "≤ 50", "unit": "%"}, {"measurement": "hERG inhibition (in words)", "setting": "hERG potassium channel [2]", "result": "low inhibition"}, {"measurement": "inhibition at 3.7 µM", "setting": "hERG potassium channel [3]", "result": 1.8, "unit": "%"}, {"measurement": "inhibition at 11.1 µM", "setting": "hERG potassium channel [3]", "result": 8.4, "unit": "%"}, {"measurement": "inhibition at 33.3 µM", "setting": "hERG potassium channel [3]", "result": 22.8, "unit": "%"}, {"measurement": "% Compound remaining at 4 hrs", "setting": "[4]; mice plasma, 37 °C", "result": 113.1, "unit": "%"}, {"measurement": "recovery at 4 h, 5 µM", "setting": "[4]; mouse, plasma (rapid equilibrium dialysis device), pH 7.4", "result": 112, "unit": "%"}, {"measurement": "fraction unbound at 4 h, 5 µM", "setting": "[4]; mouse, plasma, pH 7.4", "result": 0.048}]}
{"smiles": "Cc1cccc(-c2nn3c(c2-c2ccnc4ccc(C(N)=O)cc24)CCC3)n1", "note": "[galunisertib]", "values": [{"measurement": "Kd", "setting": "ALK4 (ACVR1B); listed as Galunisertib", "result": 77.7, "unit": "nM"}, {"measurement": "Kd", "setting": "ALK4 (ACVR1B)", "result": "~78", "unit": "nM"}, {"measurement": "Kd", "setting": "ALK3 (BMPR1A)", "result": 16800, "unit": "nM"}, {"measurement": "Kd", "setting": "ALK1 (ACVRL1)", "result": 24900, "unit": "nM"}, {"measurement": "IC50", "setting": "ALK5", "result": "[…]"}, {"measurement": "Kd", "setting": "ACVR2B", "result": 694, "unit": "nM"}]}
